Data as given in ChEMBL document CHEMBL1201862, “PubChem BioAssay data set” (2004).
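Protocol summary: plate cells (96-well), add compound at 5 concentrations, incubate 48 h, interpolate endpoints linearly. GI50 marks 50% less growth.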 Active and inactive are the calls of the source. Cut-off read from the data, not from the text of the source: active = GI50 up to about 1.1 µM and inactive = higher.

Legend:
Assay in all cases: NCI anticancer screen, dose series, 48 h
[1] = tested on: HOP-62
[2] = tested on: 786-0
[3] = tested on: NCI/ADR-RES
[4] = tested on: T47D
[5] = tested on: Hs-578T
[6] = tested on: OVCAR-4
[7] = tested on: OVCAR-3
[8] = tested on: MCF7
[9] = tested on: SK-MEL-2
[10] = tested on: UACC-62
[11] = tested on: A549
[12] = tested on: UO-31
[13] = tested on: SF-539
[14] = tested on: PC-3
[15] = tested on: K562
[16] = tested on: UACC-257
[17] = tested on: M14
[18] = tested on: SNB-19
[19] = tested on: MDA-MB-435

SMILES | GI50 [1] | GI50 [2] | GI50 [3] | GI50 [4] | GI50 [5] | GI50 [6] | GI50 [7] | GI50 [8] | GI50 [9] | GI50 [10] | GI50 [11] | GI50 [12] | GI50 [13] | GI50 [14] | GI50 [15] | GI50 [16] | GI50 [17] | GI50 [18] | GI50 [19]
CC(=O)C1=C(C)N(c2ccc(C)cc2)C2(O)C=CC(=O)C3C(=O)N(c4ccccc4)C(=O)C132 (stereo not given) | 25.9 µM (inactive) | 30.6 µM (inactive) | 54.2 µM (inactive) | 14.1 µM (inactive) | 29.7 µM (inactive) | 20.8 µM (inactive) | 22.3 µM (inactive) | 8.3 µM (inactive) | 12.5 µM (inactive) | 16.7 µM (inactive) | 38.3 µM (inactive) | 11.2 µM (inactive) | 24.4 µM (inactive) | 22.1 µM (inactive) | 3.42 µM (inactive) | 17.6 µM (inactive) | 24.4 µM (inactive) | 25.2 µM (inactive) | 36.3 µM (inactive)
CN1CCc2c(sc3ncn(Nc4ccc(Cl)cc4)c(=N)c23)C1 | > 100 µM (inactive) | > 100 µM (inactive) | > 100 µM (inactive) | > 100 µM (inactive) | > 100 µM (inactive) | > 100 µM (inactive) | > 100 µM (inactive) | > 100 µM (inactive) | > 100 µM (inactive) | > 100 µM (inactive) | > 100 µM (inactive) |  | > 100 µM (inactive) | > 100 µM (inactive) | > 100 µM (inactive) | > 100 µM (inactive) | > 100 µM (inactive) | > 100 µM (inactive) | > 100 µM (inactive)
C=C1C(=O)OC2/C=C(/C)C(OC(C)=O)C/C=C(\C)C(OC(=O)C3(C)OC3C)C(O)C12 (stereo not given) | > 100 µM (inactive) | 47.4 µM (inactive) | > 100 µM (inactive) | > 100 µM (inactive) | > 100 µM (inactive) | > 100 µM (inactive) | > 100 µM (inactive) | 51.1 µM (inactive) | > 100 µM (inactive) | > 100 µM (inactive) | > 100 µM (inactive) |  | > 100 µM (inactive) | > 100 µM (inactive) | 40.8 µM (inactive) | > 100 µM (inactive) | > 100 µM (inactive) | > 100 µM (inactive) | > 100 µM (inactive)
CCN(CC)CCCNc1ccc([N+](=O)[O-])c2nc3ccc(OC)cc3c(N)c12 | > 10 µM (inactive) | 1.44 µM (inactive) | > 4.17 µM (inactive) | > 10 µM (inactive) | 1.2 µM (inactive) | 1.92 µM (inactive) | > 4.46 µM (inactive) | > 4.37 µM (inactive) | > 9.33 µM (inactive) | > 10 µM (inactive) | 1.86 µM (inactive) | > 5.58 µM (inactive) | 1.85 µM (inactive) | 1.75 µM (inactive) | 2.1 µM (inactive) | > 10 µM (inactive) | > 4.41 µM (inactive) | > 4.34 µM (inactive) | 1.62 µM (inactive)
O=C(O)CCCc1ccc2ccccc2c1 | > 100 µM (inactive) | > 100 µM (inactive) | > 100 µM (inactive) | > 100 µM (inactive) | > 100 µM (inactive) | > 100 µM (inactive) | > 100 µM (inactive) | > 100 µM (inactive) | > 100 µM (inactive) | > 100 µM (inactive) | > 100 µM (inactive) | > 100 µM (inactive) | > 100 µM (inactive) | > 100 µM (inactive) | > 100 µM (inactive) | > 100 µM (inactive) | > 100 µM (inactive) | > 100 µM (inactive) | > 100 µM (inactive)
CCCCCCCCCC1(N=[N+]=[N-])C(=O)c2ccccc2N(C)C1=O (stereo not given) | 35.8 µM (inactive) | 38.5 µM (inactive) | 26.7 µM (inactive) | 3.4 µM (inactive) | 24.3 µM (inactive) | 67.1 µM (inactive) | 25 µM (inactive) | 29.9 µM (inactive) | 25.4 µM (inactive) | 17.3 µM (inactive) | 25.5 µM (inactive) | 19.4 µM (inactive) | 70 µM (inactive) | 19.4 µM (inactive) | 19.8 µM (inactive) | 32.9 µM (inactive) | 27 µM (inactive) | 54.7 µM (inactive) | 2.58 µM (inactive)
O=c1[nH]c2c(Nc3c4ccccc4nc4ccccc34)c([N+](=O)[O-])c(Nc3c4ccccc4nc4ccccc34)c([N+](=O)[O-])c2[nH]1 | 1.69 µM (inactive) | 1.2 µM (inactive) | 1.01 µM (active) | 3.29 µM (inactive) | 2.27 µM (inactive) | 2.35 µM (inactive) | 2.15 µM (inactive) | 1.53 µM (inactive) | 1.87 µM (inactive) | 1.39 µM (inactive) | 1.55 µM (inactive) | 1.24 µM (inactive) | 2.61 µM (inactive) | 2.05 µM (inactive) | 2.59 µM (inactive) | 2.41 µM (inactive) | 1.84 µM (inactive) | 2.64 µM (inactive) | 2.15 µM (inactive)
O=C(/C=C/c1ccc(Cl)cc1)c1ccccc(=O)c1O | 2.65 µM (inactive) | 1.18 µM (inactive) | 0.36 µM (active) | 4.36 µM (inactive) | 4.99 µM (inactive) | 0.673 µM (active) | 3.64 µM (inactive) | 2.43 µM (inactive) | 1.75 µM (inactive) | 1.14 µM (inactive) | 1.41 µM (inactive) | 1.51 µM (inactive) | 2.32 µM (inactive) | 4.08 µM (inactive) | 1.17 µM (inactive) | 2.49 µM (inactive) | 2.87 µM (inactive) | 2.72 µM (inactive) | 0.977 µM (active)
Cc1cc(S(=O)(=O)Nc2nc(Nc3ccccc3)n[nH]2)c(SCC(=O)O)cc1Cl | > 100 µM (inactive) | > 100 µM (inactive) | > 100 µM (inactive) | > 100 µM (inactive) | > 100 µM (inactive) | > 100 µM (inactive) | > 100 µM (inactive) | > 100 µM (inactive) | > 100 µM (inactive) | > 100 µM (inactive) | > 100 µM (inactive) | > 100 µM (inactive) | > 100 µM (inactive) | > 100 µM (inactive) | > 100 µM (inactive) | > 100 µM (inactive) | > 100 µM (inactive) | > 100 µM (inactive) | > 100 µM (inactive)
N#Cc1c(N)nc2c(c1-c1ccc(Br)cc1)CSc1ccccc1-2 | 50.1 µM (inactive) | 27.1 µM (inactive) | 22 µM (inactive) | 17.4 µM (inactive) | 22.8 µM (inactive) | 24.6 µM (inactive) | 30.4 µM (inactive) | 19.1 µM (inactive) | 27.2 µM (inactive) | 21.4 µM (inactive) | 37.2 µM (inactive) | 33.8 µM (inactive) | 35 µM (inactive) | 16.7 µM (inactive) | 32.1 µM (inactive) | 13.9 µM (inactive) | 41.7 µM (inactive) | 39.7 µM (inactive) | 19.5 µM (inactive)
Cc1cccc(C(C)(C)C)c1NC(=O)/C(Cc1nc2ccc([N+](=O)[O-])cc2nc1O)=N\NC(=O)C[N+](C)(C)C |  | > 100 µM (inactive) | 60.5 µM (inactive) | 53.5 µM (inactive) | > 100 µM (inactive) | > 100 µM (inactive) | 52 µM (inactive) | 74.6 µM (inactive) | > 100 µM (inactive) | > 100 µM (inactive) | > 100 µM (inactive) | 37.8 µM (inactive) | > 100 µM (inactive) | 62.5 µM (inactive) | > 100 µM (inactive) | > 100 µM (inactive) | > 100 µM (inactive) | > 100 µM (inactive) | > 100 µM (inactive)
N[C@@H](CCC(=O)NCP(=O)(O)O)C(=O)O | > 100 µM (inactive) | > 100 µM (inactive) | > 100 µM (inactive) | > 100 µM (inactive) | > 100 µM (inactive) |  | > 100 µM (inactive) | > 100 µM (inactive) | > 100 µM (inactive) | > 100 µM (inactive) | > 100 µM (inactive) | > 100 µM (inactive) | > 100 µM (inactive) | > 100 µM (inactive) | > 100 µM (inactive) | > 100 µM (inactive) |  | > 100 µM (inactive) | > 100 µM (inactive)
CN(C)CN1C(=O)S/C(=C2\C(=O)N(CN(C)C)c3ccccc32)C1=O | 41.6 µM (inactive) | 35.7 µM (inactive) | 40.2 µM (inactive) | 39.4 µM (inactive) | 34.7 µM (inactive) | 55.1 µM (inactive) | 50.2 µM (inactive) | 38.5 µM (inactive) | 32.1 µM (inactive) | 65.3 µM (inactive) | 45.8 µM (inactive) | 31.3 µM (inactive) | 40.6 µM (inactive) | 45.6 µM (inactive) |  | 32.7 µM (inactive) | 21.7 µM (inactive) | 67.5 µM (inactive) | 66.1 µM (inactive)
Cc1c(O)ccc2c(O)c(NC(=O)c3ccc4c(c3)CCC(C)(C)O4)c(=O)oc12 [CYCLONOVOBIOCIC ACID] | > 100 µM (inactive) | > 100 µM (inactive) | > 100 µM (inactive) | > 100 µM (inactive) | > 100 µM (inactive) | > 100 µM (inactive) | > 100 µM (inactive) | > 100 µM (inactive) | > 100 µM (inactive) | 90.6 µM (inactive) | > 100 µM (inactive) | > 100 µM (inactive) | > 100 µM (inactive) | > 100 µM (inactive) | > 100 µM (inactive) | > 100 µM (inactive) |  | > 100 µM (inactive) | > 100 µM (inactive)
O=C(Nc1ccccc1)n1[nH]c(=O)n(-c2ccccc2)c1=O |  | > 100 µM (inactive) | > 100 µM (inactive) | > 100 µM (inactive) | > 100 µM (inactive) | > 100 µM (inactive) |  | > 100 µM (inactive) | > 100 µM (inactive) | > 100 µM (inactive) | > 100 µM (inactive) | > 100 µM (inactive) | > 100 µM (inactive) | > 100 µM (inactive) | > 100 µM (inactive) | > 100 µM (inactive) |  | > 100 µM (inactive) | > 100 µM (inactive)
